Data taken from ChEMBL document CHEMBL4402608 (J Med Chem, 2020).
pKi: −log10 of the molar value.

What was measured:
[1] = target: Kappa-type opioid receptor (Homo sapiens, UniProt P41145); test: Displacement of [3H]-U69593 from KOR (unknown origin) measured after 90 mins by microbeta scintillation counting method
[2] = target: Muscarinic acetylcholine receptor M4 (Homo sapiens, UniProt P08173); test: Displacement of [3H]-QNB/[3H]-NMS from human muscarinic M4 receptor expressed in stable CHO cell membranes after 90 mins by microbeta scintillation counting method
Chain of Muscarinic acetylcholine receptor M4 (P08173 whole entry): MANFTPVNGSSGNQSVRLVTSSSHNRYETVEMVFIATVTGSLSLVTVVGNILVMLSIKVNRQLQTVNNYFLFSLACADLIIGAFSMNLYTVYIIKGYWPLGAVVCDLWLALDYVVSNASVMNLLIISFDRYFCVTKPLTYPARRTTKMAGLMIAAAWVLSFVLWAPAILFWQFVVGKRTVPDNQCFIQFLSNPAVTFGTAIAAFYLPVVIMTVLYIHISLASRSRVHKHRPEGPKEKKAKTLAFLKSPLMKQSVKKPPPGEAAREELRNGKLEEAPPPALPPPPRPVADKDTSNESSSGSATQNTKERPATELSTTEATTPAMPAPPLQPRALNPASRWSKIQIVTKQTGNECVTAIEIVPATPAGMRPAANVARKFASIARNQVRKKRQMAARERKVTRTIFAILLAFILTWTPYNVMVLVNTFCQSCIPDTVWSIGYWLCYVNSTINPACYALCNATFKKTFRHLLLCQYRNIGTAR

Mu-type opioid receptor = Mu-type opioid receptor (Homo sapiens, UniProt P35372); test: Displacement of [3H]-DAMGO from recombinant human MOR stably expressed in HEK cell membranes measured after 90 mins by microbeta scintillation counting method
Chain of Mu-type opioid receptor (P35372 whole entry): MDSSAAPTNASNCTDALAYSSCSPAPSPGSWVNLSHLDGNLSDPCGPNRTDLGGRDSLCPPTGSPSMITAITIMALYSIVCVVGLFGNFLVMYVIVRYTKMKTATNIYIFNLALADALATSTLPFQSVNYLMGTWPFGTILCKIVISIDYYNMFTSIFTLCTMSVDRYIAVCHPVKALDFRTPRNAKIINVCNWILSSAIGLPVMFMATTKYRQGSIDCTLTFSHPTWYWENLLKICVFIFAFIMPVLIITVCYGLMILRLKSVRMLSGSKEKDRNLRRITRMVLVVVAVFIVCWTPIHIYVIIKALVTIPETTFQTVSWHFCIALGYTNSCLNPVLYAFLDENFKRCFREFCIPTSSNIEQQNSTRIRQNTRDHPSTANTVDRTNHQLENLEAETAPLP

5HT1E receptor = 5HT1E receptor (Homo sapiens, UniProt P28566); test: Displacement of [3H]5-HT from recombinant human 5HT1E receptor stably expressed in HEK cell membranes at 10 uM measured after 90 mins by microbeta scintillation counting method relative to control; details: probe [3H]5-HT
Chain of 5HT1E receptor (P28566 whole entry): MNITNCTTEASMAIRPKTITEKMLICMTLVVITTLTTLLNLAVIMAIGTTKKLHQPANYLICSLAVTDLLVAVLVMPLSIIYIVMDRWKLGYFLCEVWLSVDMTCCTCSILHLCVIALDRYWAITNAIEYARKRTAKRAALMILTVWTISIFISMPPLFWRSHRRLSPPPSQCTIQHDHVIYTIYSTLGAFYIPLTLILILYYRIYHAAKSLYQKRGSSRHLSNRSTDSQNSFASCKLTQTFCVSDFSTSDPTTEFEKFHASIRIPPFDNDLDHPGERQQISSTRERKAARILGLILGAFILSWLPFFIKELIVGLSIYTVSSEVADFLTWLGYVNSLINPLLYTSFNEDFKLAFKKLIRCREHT

5HT5A receptor = 5HT5A receptor (Homo sapiens, UniProt P47898); test: Displacement of [3H]-LSD from recombinant human 5HT5A receptor stably expressed in Flp-In CHO cell membranes at 10 uM measured after 90 mins by microbeta scintillation counting method relative to control; details: probe [3H]-LSD
Chain of 5HT5A receptor (P47898 whole entry): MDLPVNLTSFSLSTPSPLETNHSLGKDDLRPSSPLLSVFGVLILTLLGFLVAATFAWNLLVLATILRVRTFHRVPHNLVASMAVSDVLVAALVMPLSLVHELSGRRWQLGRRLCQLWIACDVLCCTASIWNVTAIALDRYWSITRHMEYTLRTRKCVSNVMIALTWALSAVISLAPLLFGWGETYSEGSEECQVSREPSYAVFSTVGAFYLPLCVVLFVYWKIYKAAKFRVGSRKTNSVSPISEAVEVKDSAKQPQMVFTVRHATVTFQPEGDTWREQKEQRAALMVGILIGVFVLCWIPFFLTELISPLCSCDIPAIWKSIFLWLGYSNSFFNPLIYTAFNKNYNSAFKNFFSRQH

[3] = target: T1, Alpha-1B adrenergic receptor (Homo sapiens, UniProt P35368); test: Displacement of [3H]-prazosin from recombinant human alpha1B adrenergic receptor transiently expressed in HEKT cell membranes at 10 uM measured after 90 mins by microbeta scintillation counting method relative to control; details: probe [3H]-prazosin
T1 sequence (P35368 whole entry): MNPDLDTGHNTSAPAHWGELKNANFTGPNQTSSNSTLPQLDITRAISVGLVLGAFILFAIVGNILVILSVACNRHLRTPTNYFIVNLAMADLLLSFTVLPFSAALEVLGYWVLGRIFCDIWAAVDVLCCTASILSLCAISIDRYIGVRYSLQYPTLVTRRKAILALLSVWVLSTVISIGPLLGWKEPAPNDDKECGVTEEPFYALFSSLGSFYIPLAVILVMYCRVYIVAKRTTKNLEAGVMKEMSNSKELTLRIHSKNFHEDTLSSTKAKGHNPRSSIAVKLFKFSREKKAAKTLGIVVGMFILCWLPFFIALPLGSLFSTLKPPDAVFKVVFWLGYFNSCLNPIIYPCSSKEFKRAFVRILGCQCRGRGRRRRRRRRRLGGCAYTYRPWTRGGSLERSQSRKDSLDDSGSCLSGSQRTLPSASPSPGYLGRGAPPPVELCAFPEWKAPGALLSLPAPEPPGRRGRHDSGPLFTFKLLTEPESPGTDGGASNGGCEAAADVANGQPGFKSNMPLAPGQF

[4] = target: Alpha-2A adrenergic receptor (Homo sapiens, UniProt P08913); test: Displacement of [3H]-rauwolscine from recombinant human alpha2A adrenergic receptor stably expressed in MDCK cell membranes at 10 uM measured after 90 mins by microbeta scintillation counting method relative to control; details: probe [3H]-rauwolscine
Chain of Alpha-2A adrenergic receptor (P08913 whole entry): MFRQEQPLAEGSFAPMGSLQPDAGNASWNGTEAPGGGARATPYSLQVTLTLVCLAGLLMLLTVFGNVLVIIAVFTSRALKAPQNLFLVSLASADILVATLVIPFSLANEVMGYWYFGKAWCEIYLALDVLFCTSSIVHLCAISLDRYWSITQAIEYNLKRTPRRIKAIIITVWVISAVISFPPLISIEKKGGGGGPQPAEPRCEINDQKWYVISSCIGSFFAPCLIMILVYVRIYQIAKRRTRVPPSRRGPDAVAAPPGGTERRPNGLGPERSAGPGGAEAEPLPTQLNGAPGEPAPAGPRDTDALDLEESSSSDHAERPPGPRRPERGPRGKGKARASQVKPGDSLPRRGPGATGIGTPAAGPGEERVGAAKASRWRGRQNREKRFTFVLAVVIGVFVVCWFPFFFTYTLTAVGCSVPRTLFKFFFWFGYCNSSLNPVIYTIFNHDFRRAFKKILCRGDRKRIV

[5] = target: T2, Alpha-2C adrenergic receptor (Homo sapiens, UniProt P18825); test: Displacement of [3H]-rauwolscine from recombinant human alpha2C adrenergic receptor stably expressed in MDCK cell membranes at 10 uM measured after 90 mins by microbeta scintillation counting method relative to control; details: probe [3H]-rauwolscine
T2 sequence (P18825 whole entry): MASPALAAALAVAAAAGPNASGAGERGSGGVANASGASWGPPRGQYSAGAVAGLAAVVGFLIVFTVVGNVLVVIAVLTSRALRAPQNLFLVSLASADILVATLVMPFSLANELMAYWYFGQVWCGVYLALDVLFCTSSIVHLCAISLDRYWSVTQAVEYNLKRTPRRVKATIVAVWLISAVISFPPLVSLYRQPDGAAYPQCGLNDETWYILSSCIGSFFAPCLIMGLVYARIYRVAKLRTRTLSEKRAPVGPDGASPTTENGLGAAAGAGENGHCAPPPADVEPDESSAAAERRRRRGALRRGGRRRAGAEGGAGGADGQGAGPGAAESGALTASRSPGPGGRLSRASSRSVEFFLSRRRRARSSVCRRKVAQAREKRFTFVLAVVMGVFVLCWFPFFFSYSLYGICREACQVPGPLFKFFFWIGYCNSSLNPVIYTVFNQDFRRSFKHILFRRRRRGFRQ

[6] = target: Beta-1 adrenergic receptor (Homo sapiens, UniProt P08588); test: Displacement of [125I]-pindolol from recombinant human beta1 adrenergic receptor expressed in CHO Flp-In cell membranes at 10 uM measured after 90 mins by microbeta scintillation counting method relative to control; details: probe [125I]-pindolol
Chain of Beta-1 adrenergic receptor (P08588 whole entry): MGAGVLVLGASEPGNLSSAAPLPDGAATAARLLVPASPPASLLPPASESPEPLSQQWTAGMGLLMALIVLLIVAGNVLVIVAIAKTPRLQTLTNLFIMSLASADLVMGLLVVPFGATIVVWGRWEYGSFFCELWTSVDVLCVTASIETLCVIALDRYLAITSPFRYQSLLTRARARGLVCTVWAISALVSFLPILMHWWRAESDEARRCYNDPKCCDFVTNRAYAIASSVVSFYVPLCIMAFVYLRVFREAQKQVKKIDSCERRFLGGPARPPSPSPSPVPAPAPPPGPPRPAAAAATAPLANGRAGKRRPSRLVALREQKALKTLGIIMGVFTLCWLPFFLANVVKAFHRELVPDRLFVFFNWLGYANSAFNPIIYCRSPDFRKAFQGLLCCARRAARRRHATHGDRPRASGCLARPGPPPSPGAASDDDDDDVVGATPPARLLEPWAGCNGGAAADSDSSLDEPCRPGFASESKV

muscarinic M2 receptor = muscarinic M2 receptor (Homo sapiens, UniProt P08172); test: Displacement of [3H]-QNB/[3H]-NMS from human muscarinic M2 receptor expressed in stable CHO cell membranes at 10 uM after 90 mins by microbeta scintillation counting method relative to control; details: probe [3H]-QNB/[3H]-NMS
Chain of muscarinic M2 receptor (P08172 whole entry): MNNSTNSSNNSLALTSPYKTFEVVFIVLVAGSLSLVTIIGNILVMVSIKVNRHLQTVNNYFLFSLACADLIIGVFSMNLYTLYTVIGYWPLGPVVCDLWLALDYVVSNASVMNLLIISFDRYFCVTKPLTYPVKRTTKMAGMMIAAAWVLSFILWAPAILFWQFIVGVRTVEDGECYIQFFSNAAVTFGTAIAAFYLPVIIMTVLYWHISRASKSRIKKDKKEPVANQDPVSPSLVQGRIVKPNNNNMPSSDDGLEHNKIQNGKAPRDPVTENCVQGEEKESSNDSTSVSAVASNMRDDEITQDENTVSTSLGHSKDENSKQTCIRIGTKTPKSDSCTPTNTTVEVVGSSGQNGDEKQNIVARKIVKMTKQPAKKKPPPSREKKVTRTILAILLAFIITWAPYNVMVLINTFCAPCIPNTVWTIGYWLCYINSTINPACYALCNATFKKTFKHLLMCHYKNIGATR

muscarinic M4 receptor = muscarinic M4 receptor (Homo sapiens, UniProt P08173); test: Displacement of [3H]-QNB/[3H]-NMS from human muscarinic M4 receptor expressed in stable CHO cell membranes at 10 uM after 90 mins by microbeta scintillation counting method relative to control; details: probe [3H]-QNB/[3H]-NMS
Chain of muscarinic M4 receptor (P08173 whole entry): as the sequence (P08173 whole entry) above

mu opioid receptor (MOR) = mu opioid receptor (MOR) (Homo sapiens, UniProt P35372); test: Displacement of [3H]-DAMGO from recombinant human MOR stably expressed in HEK cell membranes at 10 uM measured after 90 mins by microbeta scintillation counting method relative to control; details: HEK cell membranes stably expressing recombinant human MOR, probe [3H]-DAMGO
Chain of mu opioid receptor (MOR) (P35372 whole entry): as the sequence (P35372 whole entry) above

[7] = target: noradrenaline transporter (NET) (Homo sapiens, UniProt P23975); test: Displacement of [3H]-Nisoxetine from human NET receptor expressed in stable HEK cell membranes at 10 uM after 90 mins by microbeta scintillation counting method relative to control; details: stable HEK cell membranes expressing human NET, probe [3H]-Nisoxetine
Chain of noradrenaline transporter (NET) (P23975 whole entry): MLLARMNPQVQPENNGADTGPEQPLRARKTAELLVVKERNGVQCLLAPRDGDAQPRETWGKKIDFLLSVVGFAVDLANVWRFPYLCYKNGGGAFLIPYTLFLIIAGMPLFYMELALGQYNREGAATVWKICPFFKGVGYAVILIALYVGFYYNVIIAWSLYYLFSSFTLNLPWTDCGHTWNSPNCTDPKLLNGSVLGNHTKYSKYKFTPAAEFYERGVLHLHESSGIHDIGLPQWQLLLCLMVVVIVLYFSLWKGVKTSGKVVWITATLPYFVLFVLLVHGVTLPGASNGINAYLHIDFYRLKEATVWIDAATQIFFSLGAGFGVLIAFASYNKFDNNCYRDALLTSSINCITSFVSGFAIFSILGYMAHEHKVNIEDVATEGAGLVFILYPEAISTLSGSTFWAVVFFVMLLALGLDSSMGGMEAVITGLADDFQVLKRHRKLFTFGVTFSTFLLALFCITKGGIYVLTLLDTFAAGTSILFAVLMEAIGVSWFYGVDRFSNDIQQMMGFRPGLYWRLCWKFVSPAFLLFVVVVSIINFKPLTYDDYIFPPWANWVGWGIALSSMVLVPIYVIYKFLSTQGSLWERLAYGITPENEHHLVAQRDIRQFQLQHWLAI

sigma1 receptor = sigma1 receptor (Homo sapiens, UniProt Q99720); test: Displacement of [3H]-pentazocine from sigma1 receptor (unknown origin) at 10 uM after 90 mins by microbeta scintillation counting method relative to control; details: probe [3H]-pentazocine
Chain of sigma1 receptor (Q99720 whole entry): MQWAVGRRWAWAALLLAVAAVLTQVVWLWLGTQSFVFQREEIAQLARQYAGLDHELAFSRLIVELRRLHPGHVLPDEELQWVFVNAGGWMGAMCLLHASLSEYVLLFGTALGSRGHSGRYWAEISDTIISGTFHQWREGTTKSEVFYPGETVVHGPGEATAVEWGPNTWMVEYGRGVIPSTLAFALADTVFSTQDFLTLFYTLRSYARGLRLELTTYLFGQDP

sigma 2 receptor = sigma 2 receptor (Homo sapiens, UniProt Q5BJF2); test: Displacement of [3H]-DTG from sigma 2 receptor (unknown origin) at 10 uM measured after 90 mins by microbeta counting analysis relative to control; details: probe [3H]-DTG
Chain of sigma 2 receptor (Q5BJF2 whole entry): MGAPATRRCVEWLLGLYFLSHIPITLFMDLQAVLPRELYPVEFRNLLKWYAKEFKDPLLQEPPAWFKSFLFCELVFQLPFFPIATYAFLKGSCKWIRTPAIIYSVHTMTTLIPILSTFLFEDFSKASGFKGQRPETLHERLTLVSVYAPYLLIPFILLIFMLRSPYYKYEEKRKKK

Chain of Kappa-type opioid receptor (P41145 whole entry): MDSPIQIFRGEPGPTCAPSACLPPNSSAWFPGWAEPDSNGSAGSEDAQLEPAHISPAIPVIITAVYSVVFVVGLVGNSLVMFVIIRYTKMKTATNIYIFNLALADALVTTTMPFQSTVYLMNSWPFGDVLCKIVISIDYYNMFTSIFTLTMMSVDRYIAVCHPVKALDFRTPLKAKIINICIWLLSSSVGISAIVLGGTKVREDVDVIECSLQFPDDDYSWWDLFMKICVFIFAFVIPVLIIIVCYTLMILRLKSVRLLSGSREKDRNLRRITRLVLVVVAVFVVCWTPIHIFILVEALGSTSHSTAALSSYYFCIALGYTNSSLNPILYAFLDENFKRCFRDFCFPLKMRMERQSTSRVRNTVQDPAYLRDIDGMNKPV

Row | SMILES | Ki [1] | Ki ([2]; cho) | Ki (Mu-type opioid receptor) | inhibition at […], 10 µM (5HT1E receptor) | inhibition at […], 10 µM (5HT5A receptor) | inhibition at […], 10 µM [3] | inhibition at […], 10 µM [4] | inhibition at […], 10 µM [5] | inhibition at […], 10 µM [6] | inhibition at […], 10 µM (muscarinic M2 receptor) | inhibition at […], 10 µM (muscarinic M4 receptor) | inhibition at […], 10 µM (mu opioid receptor (MOR)) | inhibition at […], 10 µM [7] | inhibition at […], 10 µM (sigma1 receptor) | inhibition at […], 10 µM (sigma 2 receptor) | pKi ([1]; read-out: Ki) | pKi ([2]; read-out: Ki) | pKi (Mu-type opioid receptor; read-out: Ki)
1 | CCCN[C@H]1CCc2nc(N)sc2C1 [PRAMIPEXOLE] | Not Active | Not Active | Not Active | > 50% | > 50% | < 50% | > 50% | > 50% | < 50% | > 50% | < 50% | < 50% | < 50% | > 50% | < 50% |  |  | 
2 | CCCN(CC[C@]1(O)C[C@H](NC(=O)c2ccc3ccccc3c2)C1)[C@H]1CCc2nc(N)sc2C1 |  |  |  | < 50% | < 50% | > 50% | < 50% | < 50% | < 50% | < 50% | > 50% | > 50% | > 50% | > 50% | < 50% | < 5.00 | 5.64 | 6.13
